Series [1] deals with MDA-MB-231, SKOV-3, HeLa, SW-620 and HCT-116 cell lines. In words: MTT cell viability assay, 72 h. It is filed as cell-based, human. The note with it: for inhibition of cell viability: 0-25 μM concentration range, dose-response relationship; for IC50 compared with oxaliplatin: human cancer cell lines. As for the experimental part: FIGS. 7A-7F show MTT assay results for some exemplary compounds disclosed herein. Graphical representation of MTT assay for the activity of exemplary compounds examined on various human cancer cell lines. […] The IC50 values of compound/oxaliplatin tested in cell-lines are mentioned alongside, in corresponding colors as the cell viability curve.
Cell culture: Mammalian cells were grown in specific culture media, supplemented with 10% fetal bovine serum (FBS) and antibiotics in a humidified environment containing 5% CO2 at 37° C.
Cell viability assay: The effects of supramolecular platinum conjugates on the viability of cancer cells were measured using MTT assay. Cells in 100 μl culture-media were plated in 96-well plates (3000-5000 cells/well) and allowed to adhere overnight in a humidified environment containing 5% CO2 at 37° C. Fresh media (100 μL) containing different concentrations of compounds were added to cells and incubated for 72 hours. Following incubation, cell viability was determined using the MTT assay. The MTT assay measures cell viability through assessment of active mitochondrial dehydrogenase, which converts MTT into water-insoluble purple formazan crystals. Cell viability was plotted as dose-response curves using curve fitting.
The effects of exemplary compounds (compound 25, 26, 27, 28, 31, 48) were evaluated in vitro in comparison with oxaliplatin in breast cancer (MDA-MB-231), ovarian cancer (SKOV-3), cervical cancer (HeLa) and colorectal cancer (SW-620 and HCT-116) cell lines.
In general terms: Tetrazolium dyes change colour on reduction, which living cells bring about.

Another series deals with MDA-MB-231 cells. In words: Cellular uptake of platinum compounds (AAS). It is filed as cell-based. The note with it: 50 μM platinum equivalent, 5 hrs. The method, then: Cells were incubated with 50 μM concentration of platinum compounds for 5 hours. The amount of platinum accumulated in cells was measured by AAS and expressed as ng of platinum accumulated per 10^5 cells.
Cellular uptake of platinum compounds: MDA-MB-231 cells (1×10^6) were seeded in 2 ml media per well of a 6-well plate and grown for 24 hrs. Required volume of compounds was added to achieve a final concentration of 50 μM platinum equivalent per well. Cells were incubated for 5 hrs after adding the compounds, then washed twice with PBS, harvested by trypsinization, resuspended in PBS and counted. Cells were centrifuged and pellets stored at −80° C. until further processing. The cell pellets were digested with 100 μl nitric acid at 70° C. for 4 hours. Following digestion, the samples were diluted in 2% HCl and the quantity of accumulated platinum was determined using Atomic absorption spectroscopy (AAS). The assay was validated using a linear standard curve, generated from serial dilutions of certified stock platinum standard and cellular uptake of platinum was expressed as ng of platinum per 1×10^5 cells.

As for `CC(C)CCC[C@@H](C)[C@H]1CCC2C3CC=C4C[C@@H](OCC[N+]5(CC(=O)[O-])CC(=O)[O][Pt]56[NH][C@@H]5CCCC[C@H]5[NH]6)CC[C@]4(C)C3CC[C@@]21C` (some centres unmarked) [Compound 25], in series [1], the “inhibition of cell viability” value is reported as “significant inhibition of cell viability” and the “IC50 compared with oxaliplatin” value is recorded as “lower than oxaliplatin”. As to `O=C1[O][Pt]2([NH][C@@H]3CCCC[C@H]3[NH]2)[O]C1=O` [oxaliplatin], the “cellular uptake of platinum” value in the series with MDA-MB-231 cells was “similar”. As to `CC(C)CCC[C@@H](C)[C@H]1CC[C@H]2[C@@H]3CC=C4C[C@@H](OC(=O)NCC[N+]5(CC(=O)[O-])CC(=O)[O][Pt]56[NH][C@@H]5CCCC[C@H]5[NH]6)CC[C@]4(C)[C@H]3CC[C@]12C` (some centres unmarked) [Compound 26], in series [1], the “inhibition of cell viability” value is given as “significant inhibition of cell viability” and the “IC50 compared with oxaliplatin” value was “lower than oxaliplatin”.

Turning to `CC(C)CCC[C@@H](C)[C@H]1CC[C@H]2[C@@H]3CC=C4C[C@@H](OCCCC5=CC(=O)[O][Pt]6([NH][C@@H]7CCCC[C@H]7[NH]6)[O]5)CC[C@]4(C)[C@H]3CC[C@]12C` [Compound 31], in series [1], the “inhibition of cell viability” value is given as “significant inhibition of cell viability” and the “IC50 compared with oxaliplatin” value is “lower than oxaliplatin”. For `CC(C)CCC[C@@H](C)[C@H]1CC[C@H]2[C@@H]3CC=C4C[C@@H](OCCNC(=O)C[N+]5(CC(=O)[O-])CC(=O)[O][Pt]56[NH][C@@H]5CCCC[C@H]5[NH]6)CC[C@]4(C)[C@H]3CC[C@]12C` (some centres unmarked) [Compound 27] the same measures were “significant inhibition of cell viability” and “lower than oxaliplatin”. For `CC(C)CCC[C@@H](C)[C@H]1CC[C@H]2[C@@H]3CC=C4C[C@@H](OCCOCC[N+]5(CC(=O)[O-])CC(=O)[O][Pt]56[NH][C@@H]5CCCC[C@H]5[NH]6)CC[C@]4(C)[C@H]3CC[C@]12C` (some centres unmarked) [Compound 28] the same measures were “significant inhibition of cell viability” and “lower than oxaliplatin”.
